Literature values in patent publication US9662356B1, “Propolis-metal nanoparticle composition and methods of use” (Vets Plus, Inc., priority 2015, dated 2017).

System: otitis externa
Details: case history: treated previously over the course of the year

Row | Molecule | outcome of previous antibiotic treatment of otitis externa
1 | C[C@@H]1[C@H](O)[C@@H](C)/C=C/C=C/CC/C=C/C=C/C=C/C=C/C(O[C@H]2O[C@H](C)[C@@H](O)[C@H](N)[C@@H]2O)CC2O[C@](O)(CC(O)C(O)CCC(O)CC(O)CC(O)CC(=O)O[C@H]1C)CC(O)C2C(=O)O (stereo partly drawn) [nystatin] | to no avail
2 | neomycin | to no avail
3 | polymyxin B | to no avail
